# Tests used:
# Arabidopsis seedlings = test: Hypocotyl length response to BL, short-day grown seedlings; type: in vivo
# BES1 = BES1 phosphorylation status by immunoblot with anti-BES1; type: in vivo, Arabidopsis
# Description: To determine whether the growth inhibitory effect caused by the over-expression of BKI1-YFP was due to an inhibition of BRI1 signaling, we tested the phosphorylation status of a downstream biochemical marker, BES1 (10), by immunoblot analysis.
# Seedlings were grown in short day photoperiods for seven days. At least ten short-day grown seedlings were measured. In FIGS. 2A-B the pBKI1::GUS line was used as a control (control). RNAi-2 and RNAi-7 were two independent RNAi knockdown lines for BKI1. In FIG. 2 C-E, phenotype of plants overexpressing BKI1-FLAG, with Col-0 (left) and a BKI1-FLAG line (right) are shown. 2C. Short-day grown seedlings. 2D. Long-day grown seedlings. 2E. Long-day grown adult plants. In FIG. 2F, leaf morphology of seedlings grown in short days. Col-0 (right) and a BKI1-FLAG line (left) are shown. In FIG. 2G, over-expression of BKI1-YFP leads to a reduced response (hypocotyl length) to BL. At least twenty short-day grown seedlings were measured. In FIG. 2H, over-expression of BKI1-YFP leads to an enhanced response to BRZ220. At least twenty dark-grown seedlings were measured. In FIG. 2I, over-expression of BKI1-YFP results in reduced accumulation of dephosphorylated BES1. Immunoblots with anti-BES1 show levels of phosphorylated BES1 (pBES1) and dephosphorylated BES1. Bottom band: loading control. In FIG. 2J, Over-expression of BKI1-YFP alters the expression of BR-regulated genes. […]
# CPD = test: qRT-PCR of brassinosteroid-regulated gene CPD; type: in vivo, Arabidopsis; settings: 100 nM BL for 2.5 hrs
# Description: (§1) Plants were treated with 100 nM BL, or a mock treatment for 2.5 hrs. Total RNA was extracted using a Qiagen RNAeasy kit (Valencia, Calif.), and the first strand cDNA was synthesized using Invitrogen Superscript III First-Strand cDNA Synthesis kit. cDNAs were combined with SYBR master mix for PCR. Primers for each gene are shown as follows. CPD (At5g05690): 5′-TTACCGCAAAGCCATCCAA-3′ (SEQ ID NO:10) and 5′-[…]-3′ (SEQ ID NO:11); DWF4 (At3g50660): 5′-[…]-3′ (SEQ ID NO:12) and 5′-[…]-3′ (SEQ ID NO:13); Saur-AC1 (At4g38850): 5′-[…]-3′ (SEQ ID NO:14) and 5′-[…]-3′ (SEQ ID NO:15); and BKI1: 5′-GCTCCGGCGTCGATGA-3′ (SEQ ID NO:16) and 5′-[…]-3′ (SEQ ID NO:17). A U-box gene (At5g15400) was used to normalize the data (5′-[…]-3′ (SEQ ID NO:18) and 5′-TGCTGCCCAACATCAGGTT-3′ (SEQ ID NO:19)). PCR reactions were performed in triplicate or quadruplicate with a Bio-Rad iCycler, and the data were collected and analyzed with Bio-Rad MyiQ Single-Color Real-Time PCR Detection System.
# DWF4 = test: qRT-PCR of brassinosteroid-regulated gene DWF4; type: in vivo, Arabidopsis; settings: 100 nM BL for 2.5 hrs
# Description: as §1
# Saur-AC1 = test: qRT-PCR of brassinosteroid-regulated gene Saur-AC1; type: in vivo, Arabidopsis; settings: Plus BL (100 nM, 2.5 hrs)
# Description: as §1
# [1] = test system: plasma membrane-association of BKI1-YFP; test: Subcellular localization of BKI1-YFP in root tip cells (confocal); type: cell-based, Arabidopsis; settings: for plasma membrane-association of BKI1-YFP following BL treatment: wild-type background, grown on 1 μM BRZ220, treated with 1 μM BL
# Description: To investigate where in the pathway BKI1 acts, we examined the subcellular localization of the BKI1-YFP fusion protein in plants. BKI1-YFP was localized to both the plasma membrane and the cytosol in root tip cells (FIG. 3A). When the BKI1-YFP line was grown on medium containing 1 μM BRZ220, which reduces the levels of endogenous brassinosteroids (22), the fluorescent signal on the cell surface was enhanced (FIG. 3B).
# In FIG. 3A, BKI1-YFP is localized to the plasma membrane and cytosol on MS medium. In FIG. 3B, BRZ220 enhances the association of BKI1-YFP to the plasma membrane. Seedlings were grown on MS medium containing 1 μM BRZ220. In FIG. 3C, BL enhances BKI1-YFP dissociation from the plasma membrane. Seedlings were grown on MS medium containing 1 μM BL. […] Seedlings were grown on MS medium containing 1 μM of BRZ220 and treated with 1 μM BL. J-L. BKI1-YFP is associated with the plasma membrane in bri1-116. Seedlings were grown on MS medium containing 1 μM of BRZ220. bri1-116 is a null allele of BRI1 (19). […] Seedlings were grown on MS medium containing 1 μM BL. […] Seedlings were grown on MS medium containing 1 μM BRZ220. 3D, G, J, M, and P are untreated; E, H, K, N, and Q are treated with BL for 5 min, and F, I, L, O, and R are treated with BL for 10 min.
# Seedlings were grown on MS medium containing 1 μM of BRZ220. The time of BL treatment is indicated. Top panels: BKI1-YFP; Lower panels: myriBKI1-YFP. […] Immunoblots with anti-GFP show levels of myriBKI1-YFP and BKI1-YFP. Bottom band: loading control. […] The total ^35S-Met labeled BRI1-KD-HIS co-precipitated by GST-BAK1-KD was defined as “1”. Five replicates were conducted. Error bars indicate standard error. 1, GST-BAK1-KD±35S-BRI1-KD-HIS; 2, GST-BAK1-KD+35S-BRI1-KD-HIS+10 μM of MBP; 3, GST-BAK1-KD+35S-BRI1-KD-HIS+10 μM of MBP-BKI1. […] Without BL, BRI1 kinase is kept in a basal state by both its own carboxyl terminal domain and by an interaction with BKI1. Brassinosteroid binding to the extracellular domain of BRI1 induces a conformational change of the kinase domain, leading to the phosphorylation of the C-terminal domain of BRI1 and BKI1, the dissociation of BKI1 from the plasma membrane, and the release of autoinhibition of BRI1. These events lead to the full activation of BRI1 and its association with BAK1 or other substrates. Plasma membrane-dissociated BKI1 may also regulate other unknown components in the brassinosteroid signaling cascade. BSU1 is a nuclear serine/threonine phosphatase involved in the dephosphorylation of BES1 (27).
# The predicted full-length BKI1 was amplified by RT-PCR from total RNA of Col-0 using Pfu DNA polymerase (Stratagene), and cloned into the binary vector pCHF3 that contains a 35S promoter (10), three copies of FLAG ([…], SEQ ID NO:8) fused at the Cterminal end, and the RubisCo small subunit (rbcS) terminator. For the YFP fusion construct, full length BKI1 was cloned into a modified pCHF3 containing a 35S promoter and a C-terminal YFP tag. For the myriBKI1-YFP construct, a myristoylation site (MGICMSR, SEQ ID NO:9) was added to the N-terminus of BKI1-YFP via PCR. All constructs were confirmed by sequencing and transformed into Col-0 plants. The subcellular localization of BKI1-YFP and myriBKI1-YFP was visualized and photographed using a Leica TCS SP2 confocal microscope (Leica Microsystems, Germany).
# [2] = target: T1, kinase domain of NIK1 (NIK1-KD) in pDBLeu (GAL4-DB fusion) (UniProt P04386 1-147; Q9LFS4 270-638, limits assumed); test: yeast two-hybrid
# T1 construct: domain: GAL4-DB;domain: kinase domain; Yeast two-hybrid bait
# [3] = target: T2, CLV1 kinase domain (CLV1-KD) fused with GAL4-DB (in pDBLeu) (UniProt P04386 1-147; Q9SYQ8 660-980, limits assumed); test: yeast two-hybrid
# T2 construct: domain: GAL4-DB;domain: kinase domain; Yeast two-hybrid bait
# [4] = target: T3, BRL1 kinase domain (BRL1-KD) fused with GAL4-DB (in pDBLeu) (UniProt P04386 1-147; Q9ZWC8 798-1166, limits assumed); test: yeast two-hybrid
# T3 construct: domain: GAL4-DB;domain: kinase domain; Yeast two-hybrid bait
# [5] = target: T4, BRL3 kinase domain (BRL3-KD) fused with GAL4-DB (in pDBLeu) (UniProt P04386 1-147; Q9LJF3 794-1164, limits assumed); test: yeast two-hybrid
# T4 construct: domain: GAL4-DB;domain: kinase domain; Yeast two-hybrid bait
# [6] = target: full length TTL in pDBLeu (GAL4-DB fusion) (Arabidopsis, UniProt P04386 1-147; Q9LVM5 1-324, limits assumed); test: yeast two-hybrid
# [7] = target: full-length BIN2 in pDBLeu (GAL4-DB fusion) (UniProt P04386 1-147; Q39011 1-380); test: yeast two-hybrid
# [8] = target: T5, kinase domain of BAK1 (BAK1-KD) in pDBLeu (GAL4-DB fusion) (UniProt P04386 1-147; Q94F62 247-615, limits assumed); test: yeast two-hybrid
# T5 construct: domain: GAL4-DB;domain: kinase domain; Yeast two-hybrid bait
molecule,measurement,setting,value
"CC(C)[C@H](C)[C@@H](O)[C@H](O)[C@@H](C)[C@H]1CC[C@H]2[C@@H]3COC(=O)[C@H]4C[C@H](O)[C@H](O)C[C@]4(C)[C@H]3CC[C@]12C [BL, brassinolide]",response to BL treatment (hypocotyl length),Arabidopsis seedlings; det2-1 brassinosteroid biosynthetic mutant,highly responsive
same,sensitivity to BL applications compared to wild type (fold less sensitive),"Arabidopsis seedlings; plants over-expressing BKI1-YFP, hypocotyl length",at least 100 fold
same,accumulation of dephosphorylated BES1,"BES1; det2-1, 0.1 μM BL for one hour",strongly stimulated
same,accumulation of dephosphorylated BES1,"BES1; wild type, 0.1 μM BL for one hour",strongly stimulated
same,"expression of CPD (RNA level, WT without BL = 1.00)",CPD; BKI1-YFP line,0.83±0.05
same,"expression of CPD (RNA level, WT without BL = 1.00)",CPD; WT,0.47±0.03
same,"expression of DWF4 (RNA level, WT without BL = 1.00)",DWF4; BKI1-YFP line,0.80±0.06
same,"expression of DWF4 (RNA level, WT without BL = 1.00)",DWF4; WT,0.27±0.01
same,"expression of Saur-AC1 (RNA level, WT without BL = 1.00)",Saur-AC1; BKI1-YFP line,1.65±0.11
same,"expression of Saur-AC1 (RNA level, WT without BL = 1.00)",Saur-AC1; WT,4.68±0.31
same,BL-induced dissociation of BKI1-YFP from the plasma membrane,[1]; bri1-104 (kinase inactive allele),no BL-induced dissociation
same,BL-induced dissociation of BKI1-YFP from the plasma membrane,[1]; bri1-116 homozygous seedlings (null allele),failed to induce the dissociation
same,plasma membrane-association of BKI1-YFP,[1]; grown on medium containing 1 μM BL,reduced
same,plasma membrane-association of BKI1-YFP following BL treatment,[1]; 10 minutes,undetectable
same,plasma membrane-association of BKI1-YFP following BL treatment,[1]; after 5 minutes,almost completely gone
"BKI1 fused with GAL4-AD (BKI1-pEXAD502), full-length BKI1 (other, not shown: large carriers, Yeast two-hybrid prey; it is put N-terminal here; also called BKI1-FL; At5g42750) METNLQQVKNSSQTFSEKQNPKQEASPSPISSTCSSPSHDFSFTISLQPLSSSSKHISPTLRSPSKTTSSYQQTDPFAVDLSPADEIFFHGHLLPLHLLSHLPVSPRTSTGSYNDGFTLPVKDILPDQPTNNNNNTENAITNISTEAKDDNTEDKAEGEIRVKTKPIKSFSLFGLSKWRKGFESNEREQEQQQQKIKKPMSLDLSHAVKKYIRMLFQKRGNGTQFWNRRQTSSYSFSSSLMGPNGNSKTMINGSYNKRDLIRGRRGELFSAPASMRTSPTNSGHLRVSTAGLSSSSGSTSSSSSDSTMEELQAAIQAAIAHCKNSSAVDRDDKVKDS",binding result,[2],no binding
same,binding result,[3],no binding
same,binding result,[4],no binding
same,binding result,[5],no binding
same,binding result,[6],no binding
same,binding result,[7],no binding
same,binding result,[8],no binding

# — patent publication US8008542B2, “Compositions, cells, and plants that include BKI1, a negative regulator of BRI1-mediated BR signaling” (The Salk Institute for Biological Studies, priority 2007, dated 2011)
